Test results published in patent US4234511A, “Dialkylamino-N,N-bis(phosphonoalkylene)alkylamines and use in aqueous systems as precipitation and corrosion inhibitors” (Buckman Laboratories, Inc., priority 1979, dated 1980).
Counter-ions that a name gives are not always drawn.

Experiments:
[1] = Corrosion inhibition, circulating Memphis tap water with mild steel coupons; conditions: initial pH 7.5, 50° C., three days
Method: The test apparatus included a sump, a flow circuit, a circulating pump and a heater. […] The test fluid was Memphis tap water with the pH adjusted to 7.5 and the temperature was maintained at 50° C.±2° C.
The test fluid containing various concentrations of the compositions described herein was circulated continuously through the system containing the test coupons for a period of three days. At the end of this period, the coupons were removed, cleaned and weighed. The corrosion rates were calculated in milligrams per square decimeter per day (MDD).

[2] = Calcium Carbonate Antiprecipitation Tests; conditions: pH 9, 25° C., approx. 18 hours
Method: To evaluate the effect of the compounds of the present invention on the precipitation of calcium carbonate, measured volume of stock solution (prepared with demineralized water) of the phosphonic acids or their reaction product with epichlorohydrin were added to 100-ml portions of a calcium hydroxide solution (0.40 g Ca(OH)2 per liter). Then 100 ml of a sodium bicarbonate solution (0.50 g NaHCO3 per liter) was added to each portion of calcium hydroxide solution. The pH of each portion was adjusted to 9.00 (±0.05). The test solutions were then agitated on a rotary shaker for approximately 18 hours at a temperature of 25° C. At the end of this time insoluble material was removed by filtration with Whatman No. 4 filter paper and the calcium ion concentration in the filtrate was determined by titration with a standard ethylenediamine tetraacetic acid solution. The percent inhibition (Table 1) was calculated by comparing the test solution values with two controls included in every test series.

SMILES: CN(C)CCN(CP(=O)(O)O)CP(=O)(O)O [F, 2-Dimethylamino-N',N'-bis(phosphonomethyl)ethylamine Hydrochloride]
- Corrosion rate, Average ([1]; 50 parts per million): 35.46 Miligrams per decimeter per day
- Corrosion rate, Copper Couple ([1]; 50 parts per million): 40.08 Miligrams per decimeter per day
- Corrosion rate, Sump 1 ([1]; 50 parts per million): 12.94 Miligrams per decimeter per day
- Corrosion rate, Sump 2 ([1]; 50 parts per million): 53.37 Miligrams per decimeter per day
- Corrosion Inhibition, Percent ([1]; 100 parts per million): 99.4%
- Corrosion rate, Average ([1]; 100 parts per million): 1.57 Miligrams per decimeter per day
- Corrosion rate, Copper Couple ([1]; 100 parts per million): 1.95 Miligrams per decimeter per day
- Corrosion rate, Sump 1 ([1]; 100 parts per million): 1.24 Miligrams per decimeter per day
- Corrosion rate, Sump 2 ([1]; 100 parts per million): 1.51 Miligrams per decimeter per day
- Corrosion Inhibition, Percent ([1]; 150 parts per million): 99.6%
- Corrosion rate, Average ([1]; 150 parts per million): 1.06 Miligrams per decimeter per day
- Corrosion rate, Copper Couple ([1]; 150 parts per million): 0.98 Miligrams per decimeter per day
- Corrosion rate, Sump 1 ([1]; 150 parts per million): 1.15 Miligrams per decimeter per day
- Corrosion rate, Sump 2 ([1]; 150 parts per million): 1.06 Miligrams per decimeter per day
- Inhibition of Calcium Carbonate Precipitation, percent inhibition ([2]; 1.0 parts per million): 6.2%
- Inhibition of Calcium Carbonate Precipitation, percent inhibition ([2]; 2.0 parts per million): 17.8%
- Inhibition of Calcium Carbonate Precipitation, percent inhibition ([2]; 3.0 parts per million): 32.3%
- Inhibition of Calcium Carbonate Precipitation, percent inhibition ([2]; 4.0 parts per million): 35.3%
- Inhibition of Calcium Carbonate Precipitation, percent inhibition ([2]; 5.0 parts per million): 49.5%
- Inhibition of Calcium Carbonate Precipitation, percent inhibition ([2]; 6.0 parts per million): 55.6%
- Inhibition of Calcium Carbonate Precipitation, percent inhibition ([2]; 7.0 parts per million): 65.2%
- Inhibition of Calcium Carbonate Precipitation, percent inhibition ([2]; 8.0 parts per million): 69.6%
- Inhibition of Calcium Carbonate Precipitation, percent inhibition ([2]; 9.0 parts per million): 77.7%
- Inhibition of Calcium Carbonate Precipitation, percent inhibition ([2]; 10.0 parts per million): 78.6%

SMILES: CN(C)CCCN(CP(=O)(O)O)CP(=O)(O)O [A, 3-(N,N-Dimethylamino)-N',N'-bis(phosphonomethyl)propylamine Hydrochloride]
- Corrosion Inhibition, Percent ([1]; 50 parts per million): 99.4%
- Corrosion rate, Average ([1]; 50 parts per million): 1.51 Miligrams per decimeter per day
- Corrosion rate, Copper Couple ([1]; 50 parts per million): 3.01 Miligrams per decimeter per day
- Corrosion rate, Sump 1 ([1]; 50 parts per million): 1.33 Miligrams per decimeter per day
- Corrosion rate, Sump 2 ([1]; 50 parts per million): 0.18 Miligrams per decimeter per day
- Corrosion Inhibition, Percent ([1]; 100 parts per million): 99.5%
- Corrosion rate, Average ([1]; 100 parts per million): 1.24 Miligrams per decimeter per day
- Corrosion rate, Copper Couple ([1]; 100 parts per million): 1.06 Miligrams per decimeter per day
- Corrosion rate, Sump 1 ([1]; 100 parts per million): 0.89 Miligrams per decimeter per day
- Corrosion rate, Sump 2 ([1]; 100 parts per million): 1.77 Miligrams per decimeter per day
- Corrosion Inhibition, Percent ([1]; 200 parts per million): 99.2%
- Corrosion rate, Average ([1]; 200 parts per million): 2.13 Miligrams per decimeter per day
- Corrosion rate, Copper Couple ([1]; 200 parts per million): 3.90 Miligrams per decimeter per day
- Corrosion rate, Sump 1 ([1]; 200 parts per million): 1.15 Miligrams per decimeter per day
- Corrosion rate, Sump 2 ([1]; 200 parts per million): 1.33 Miligrams per decimeter per day
- Inhibition of Calcium Carbonate Precipitation, percent inhibition ([2]; 1.0 parts per million): 0%
- Inhibition of Calcium Carbonate Precipitation, percent inhibition ([2]; 2.0 parts per million): 0%
- Inhibition of Calcium Carbonate Precipitation, percent inhibition ([2]; 3.0 parts per million): 4.2%
- Inhibition of Calcium Carbonate Precipitation, percent inhibition ([2]; 4.0 parts per million): 41.6%
- Inhibition of Calcium Carbonate Precipitation, percent inhibition ([2]; 5.0 parts per million): 50.9%
- Inhibition of Calcium Carbonate Precipitation, percent inhibition ([2]; 6.0 parts per million): 54.5%
- Inhibition of Calcium Carbonate Precipitation, percent inhibition ([2]; 7.0 parts per million): 64.1%
- Inhibition of Calcium Carbonate Precipitation, percent inhibition ([2]; 8.0 parts per million): 60.6%
- Inhibition of Calcium Carbonate Precipitation, percent inhibition ([2]; 9.0 parts per million): 69.4%
- Inhibition of Calcium Carbonate Precipitation, percent inhibition ([2]; 10.0 parts per million): 67.5%
